According to patent US4350676A, “Ophthalmic use of carboxyfluorescein” (priority 1981, dated 1982):
Read-outs that look alike come from different tables or passages of the source.

Tests used:
physchem = settings: for logD at 10 µM / logD at 1000 µM / Partition ratio octanol/buffer: octanol/0.1 m phosphate buffer
Method: Octanol/buffer partition ratios: The ratio of concentrations of a given solute in equilibrium distribution between two immiscible solvents is termed the partition coefficient. This expression properly refers only to the distribution of a single molecular species between the two phases. […] Total dye concentration in the two solvent phases was measured without correction for ionization or self-association and the recommended term, "partition ratio", is used to refer to these uncorrected distributions.
Carboxyfluorescein (Eastman Kodak Co., Rochester) or sodium fluorescein (Sigma Chemical Co., St. Louis) was dissolved at concentrations of 10^-3 M or 10^-5 M in octanol-saturated 0.1 M phosphate buffer at different pH values between 6.40 and 8.03. The aqueous dye solutions were equilibrated with equal volumes of buffer-saturated octanol by 100 inversions during 5 minutes, and the phases were separated by centrifugation. Dye concentrations were measured spectrofluorophotometrically at excitation and emmision wavelengths of 487 and 512 nm, respectively, with an Aminco-Bowman Ratio Spectrofluorophotometer.
Two methods were used to calculate partition ratios. In the first, the dye concentration in the aqueous phase was measured before (Cb) and after (Ca) partitioning, and the ratio was obtained from the equation:
P.R.=Coct/Caq=(Cb -Ca)/Ca,
where Coct and Caq are the dye concentration in the octanol and aqueous phases respectively after equilibration. In the second method, concentration in the octanol phase was determined by extracting the dye from octanol with an equal volume 0.1 N NaOH. […] Therefore, dye concentration in the first base extract was accepted as the concentration in the octanol phase and calculated the partition ratio from the equation: […]

[1] = tested on: blood-ocular barriers (choroid and retina); assay type: in vivo, male Wistar rats; settings: rat, iv
Description: To determine whether a less membrane permeable dye than fluorescein has value as a probe of the structural and functional integrity of the blood-ocular barriers we have undertaken studies of carboxyfluorescein, a compound with the same fluorescence characteristics as fluorescein, but with lower lipid solubility at physiological pH (7). In particular, the lipid solubility of carboxyfluorescein was compared with fluorescein by measuring dye partitioning between octanol and aqueous buffer at different pH to determine solubility behavior relevant to the permeability of cell membranes in vivo. Studies were then made of the ocular distribution carboxyfluorescein in rats after intravenous injection using quantitative fluorescence microscopy; and compared to the results for fluorescein. The plasma binding of carboxyfluorescein was also studied and compared to fluorescein.
(§1) Intra-ocular dye distribution: Young male Wistar rats (180-250 g) under pentobarital anesthesia (50 mg/kg i.p.) were injected intravenously with carboxyfluorescein or fluorescein solutions (pH 7.4) at doses of 12.5, 62.5 and 125 mg/kg. One minute after dye injection, the eyes were removed and immediately frozen in isopentane cooled to -110° C. by a liquid nitrogen bath. Between 2 and 4 minutes after injection a blood sample from the abdominal aorta was drawn into a heparinized syringe for determination of the concentration of unbound dye in plasma. The frozen eyes were dried under vacuum at -35° C. and embedded in paraffin. After embedding the eyes were stored under vacuum at -20° C. to minimize the development of autofluorescence. Additional eyes from normal rats not injected with dye were processed and stored identically for measurement of tissue autofluorescence. Immediately prior to examination with the fluorescence microscope, sections were cut at a thickness of 12 microns, placed on glass slides, and mounted with xylene.
Fluorescence intensity in small areas of the tissue sections was measured with a 450 u fiber optic probe placed in the object plane of an ocular and connected to a photomultiplier tube. An amplified signal from the photomultiplier was recorded with a digital voltmeter. The illumination system consisted of a 50 W high pressure mercury light source and an epifluorescence condensor equipped with a 455-490 nm exciter filter, a 510 nm dichroic beam splitter, and a 520 nm barrier filter. All measurements were performed using a 63X oil objective (N.A. 1.4). With this magnification, an aperture in the object plane restricted the area of illumination to a circle, 24 microns in diameter. The fiber optic probe covered a specimen field, 6 microns in diameter, centered in the larger illuminated field.
Fluorescence intensity of four tissue layers was recorded in the posterior segment: the inner plexiform, outer nuclear, and photoreceptor outer segment layers of the retina, and the choriocapillaris. Each of these layers is of sufficient width so that the illuminated area encompassed a homogeneous field. Foci of intense fluorescence, such as dye filled retinal capillaries, within the illumination field but outside the detection area of the fiber optic probe, can increase the recorded signal by light scatter into the detection area. Fields containing such bright foci were avoided. Examination of the section, location of the area for measurement, and focusing of the image was accomplished under dim green illumination from a tungsten lamp. The illumination was then switched to the fluorescence system, and the maximum value of fluorescence intensity was recorded as voltage. Measurements were made at 12 sites in each layer to obtain the average fluorescence intensities for an individual eye. These values were then corrected for tissue autofluorescence by subtracting the average fluorescence intensity of each layer in eyes from animals not injected with dye. […]

[2] = Measurement of unbound dye in plasma of injected rats (dialysis); assay type: in vivo, male Wistar rats; settings: rat; for Plasma unbound dye concentration: blood 2-4 min after injection
Method: as §1
(§2) Measurement of unbound dye in plasma: Plasma was separated by centrifugation from the heparinized blood obtained from rats injected with sodium fluorescein or carboxyfluorescein in the intraocular dye distribution study. The plasma was dialyzed for 24 hours at 37° C. against 0.1 M phosphate buffer at pH 7.4 using cellulose dialysis tubing with a 3500 molecular weight cut-off. Dye concentration was measured in the dialysate spectrofluorophotometrically and from this value calculated the unbound plasma dye concentration.

[3] = Dialyzable (unbound) fraction of dye in human plasma; assay type: in vitro ADME; settings: human plasma, 37° C., read-out: Dialyzable fraction (mean ± S.E.M.)
Method: as §2
(§3) To study the fraction of unbound dye in human plasma, there was added small aliquots of carboxyfluorescein and sodium fluorescein solutions to plasma separated from heparinized human blood so that the final dye concentration in the plasma was between 10^-3 M and 10^-6 M. The plasma/dye mixture was incubated for 2 hours at 37° C. Then using the dialysis and measuring procedures described above, the ratio of unbound dye to total dye in the plasma mixture was calculated.

[4] = cited from earlier work
[5] = cited from earlier work; remark: listed apart in the source
cornea = settings: topical; cited from earlier work
[6] = tested on: active transport system in the anterior uvea; settings: outward, from eye to blood; cited from earlier work
human plasma proteins = assay: Dialyzable (unbound) fraction of dye in human plasma; assay type: in vitro ADME; settings: for Dialyzable fraction (mean ± S.E.M.): human, plasma
Method: as §2, §3

rabbit eyes = tested on: rabbit eyes
Method: Carboxyfluorescein was prepared as a 1% solution in water, buffered to pH 7.4. Carboxyfluorescein was made into strip form, using strips of #1 filter paper, impregnated with carboxyfluorescein and allowed to dry. The carboxyfluorescein was applied to rabbit eyes both with the paper impregnated strip and also as a 1% topical drop.

O=C1OC2(c3ccc(O)cc3Oc3cc(O)ccc32)c2ccccc21 [fluorescein]
logD at 10 µM (physchem; pH 6.42): 1.58 | logD at 1000 µM (physchem; pH 6.42): 1.54 | logD at 10 µM (physchem; pH 6.87): 0.69 | logD at 1000 µM (physchem; pH 6.87): 0.708 | logD at 10 µM (physchem; pH 7.38): -0.194 | logD at 1000 µM (physchem; pH 7.38): -0.292 | logD at 10 µM (physchem; pH 8.03): -1.52 | logD at 1000 µM (physchem; pH 8.03): -1.42 | pH at which partition ratio reaches 1.0 (physchem; octanol/buffer): 7.25 | Fluorescence of iris epithelium ([1]; in vivo): brightly stains the cells of the ciliary and iris epithelium | Outer segment layer values relative to deeper retinal layers ([1]; in vivo): twice as high | Tissue relative fluorescence intensity, IPL (mean ± S.E.M.) ([1]; in vivo, 12.5 mg/kg): .021 | Tissue relative fluorescence intensity, ONL (mean ± S.E.M.) ([1]; in vivo, 12.5 mg/kg): .011 ± .001 | Tissue relative fluorescence intensity, choroid (mean ± S.E.M.) ([1]; in vivo, 12.5 mg/kg): .57 ± .03 | Tissue relative fluorescence intensity, outer segments (mean ± S.E.M.) ([1]; in vivo, 12.5 mg/kg): .032 ± .003 | Tissue relative fluorescence intensity, IPL (mean ± S.E.M.) ([1]; in vivo, 62.5 mg/kg): .086 | Tissue relative fluorescence intensity, ONL (mean ± S.E.M.) ([1]; in vivo, 62.5 mg/kg): .076 ± .004 | Tissue relative fluorescence intensity, choroid (mean ± S.E.M.) ([1]; in vivo, 62.5 mg/kg): 2.7 ± .2 | Tissue relative fluorescence intensity, outer segments (mean ± S.E.M.) ([1]; in vivo, 62.5 mg/kg): .153 ± .008 | Tissue relative fluorescence intensity, IPL (mean ± S.E.M.) ([1]; in vivo, 125 mg/kg): .150 | Tissue relative fluorescence intensity, ONL (mean ± S.E.M.) ([1]; in vivo, 125 mg/kg): .196 ± .011 | Tissue relative fluorescence intensity, choroid (mean ± S.E.M.) ([1]; in vivo, 125 mg/kg): 5.7 ± .5 | Tissue relative fluorescence intensity, outer segments (mean ± S.E.M.) ([1]; in vivo, 125 mg/kg): .452 ± .021 | Outer segment layer values relative to choroid ([1]; in vivo, 1 min): 6-8% | Plasma unbound dye concentration ([2]; i.v. 12.5 mg/kg): .04 ± .03 mg/mL | Plasma unbound dye concentration ([2]; i.v. 62.5 mg/kg): .18 ± .01 mg/mL | Plasma unbound dye concentration ([2]; i.v. 125 mg/kg): .29 ± .01 mg/mL | fraction unbound at 1000 µM ([3]; 10^-3 M): 0.3 ± 0.02 | fraction unbound at 100 µM ([3]; 10^-4 M): 0.33 ± 0.03 | fraction unbound at 10 µM ([3]; 10^-5 M): 0.33 ± 0.01 | fraction unbound at 1 µM ([3]; 10^-6 M): 0.32 ± 0.02 | Partition coefficient octanol/artificial sea water [4]: 0.6 | pKa, divalent/monovalent anion ([5]; dianion/monoanion): 6.7 | pKa, monoanion/neutral molecule ([5]; second listed pKa): 4.4 | pKa, neutral molecule/cation ([5]; third listed pKa): 2.2 | Corneal penetration and artificial aqueous flare (cornea): its ready penetration through the cornea into the aqueous humor creates an artificial aqueous flare | Substrate for active transport [6]: serves as a substrate for an active transport system in the anterior uvea

carboxyfluorescein
Partition ratio octanol/buffer (physchem; 10 µM, pH 6.42): .037 | Partition ratio octanol/buffer (physchem; 10 µM, pH 6.87): .0030 | Partition ratio octanol/buffer (physchem; 10 µM, pH 7.38): .0007 | Partition ratio octanol/buffer (physchem; 1000 µM, pH 6.42): .033 | Partition ratio octanol/buffer (physchem; 1000 µM, pH 6.87): .0028 | Partition ratio octanol/buffer (physchem; 1000 µM, pH 7.38): .0008 | Partition ratio octanol/buffer (physchem; 1000 µM, pH 8.03): .00006 | Partition ratio (physchem; octanol/phosphate buffer, pH 6.4): below 0.1 | Fluorescence of iris stroma ([1]; in vivo): the intensity of fluorescence is less than that seen with fluorescein | Tissue relative fluorescence intensity, IPL (mean ± S.E.M.) ([1]; in vivo, 62.5 mg/kg): .001 | Tissue relative fluorescence intensity, ONL (mean ± S.E.M.) ([1]; in vivo, 62.5 mg/kg): .002 ± .001 | Tissue relative fluorescence intensity, choroid (mean ± S.E.M.) ([1]; in vivo, 62.5 mg/kg): 8.0 ± .4 | Tissue relative fluorescence intensity, outer segments (mean ± S.E.M.) ([1]; in vivo, 62.5 mg/kg): .008 ± .001 | Tissue relative fluorescence intensity, IPL (mean ± S.E.M.) ([1]; in vivo, 125 mg/kg): .002 | Tissue relative fluorescence intensity, ONL (mean ± S.E.M.) ([1]; in vivo, 125 mg/kg): .003 ± .001 | Tissue relative fluorescence intensity, choroid (mean ± S.E.M.) ([1]; in vivo, 125 mg/kg): 7.8 ± .8 | Tissue relative fluorescence intensity, outer segments (mean ± S.E.M.) ([1]; in vivo, 125 mg/kg): .006 ± .003 | Permeability of blood-ocular barriers to intravascular dye ([1]; not told): markedly less permeable to intravascular carboxyfluorescein than to fluorescein | Plasma unbound dye concentration compared with fluorescein ([2]; in vivo, iv): significantly higher than in animals injected with fluorescein | Binding to human plasma proteins compared with fluorescein (human plasma proteins): consistently less bound to human plasma proteins than fluorescein | Dialyzable fraction (mean ± S.E.M.) (human plasma proteins; 1 µM): .46 ± .01 | Dialyzable fraction (mean ± S.E.M.) (human plasma proteins; 10 µM): .51 ± .03 | Dialyzable fraction (mean ± S.E.M.) (human plasma proteins; 100 µM): .50 ± .01 | Dialyzable fraction (mean ± S.E.M.) (human plasma proteins; 1000 µM): .61 ± .02 | Persistence of stain (rabbit eyes; corneal abrasion, observation 30 to 45 minutes): persisted but lessened in intensity | Staining of corneal epithelial defect (rabbit eyes; experimental corneal abrasion): densely stained the corneal epithelial defect | Hyperemia or corneal changes (rabbit eyes; in vivo): no apparent hyperemia or corneal changes | Reaction / subjective discomfort (rabbit eyes; in vivo): did not react in a negative fashion | Visibility in tear film (rabbit eyes; topical, blue light): seen in the tear film
